IC50 data for 18 compounds are collected here from patent publication US11752138B2 (VANDERBILT UNIVERSITY, priority 2020, dated 2023).

By IC50 is commonly meant the point on the concentration scale where inhibition reaches its midpoint. Low values mean inhibition by little substance, high ones a need for much substance.

For the assay, the target named is Human LDHA (Homo sapiens (Human), UniProt P00338). The assay can be described thus: human LDHA primary biochemical assay (Example 1). Conditions: biochemical LDHA inhibitory activity, assay of Example 1. The source says: This example describes a human LDHA primary biochemical assay employed in the characterization of a compound of Formula I in an embodiment of the dislcosure.
Test compounds were placed in a Greiner Bio-One (Monroe, N.C.) 1536-well black solid bottom assay plate. 200 millimolar (mM) Tris HCl, pH 7.4, 100 micromolar (μM) EDTA and 0.01% TWEEN-20™, final concentration, was used as the assay buffer. The LDHA reagent was 2 nanomolar (nM) Human LDHA (Meridian Life Science, Inc., Memphis, Tenn.), final concentration, in assay buffer. The substrate reagent was 0.06 mM NADH and 0.2 mM sodium pyruvate, final concentration, in assay buffer. The resazurin/diaphorase coupling reagent was 0.037 mM resazurin and 0.133 milligrams per milliliter (mg/mL) diaphorase, final concentration, in assay buffer. The inhibition of LDHA activity was measured by fluorescence emission. […]
`NS(=O)(=O)c1ccc(Cc2c(-c3ccc(F)c(-c4ccc5c(c4)CCC5)c3)nn(-c3nc(C(=O)O)cs3)c2CC2CC2)cc1F` [Compound 155, 2-(5-(cyclopropylmethyl)-3-(3-(2,3-dihydro-1H-inden-5-yl)-4-fluorophenyl)-4-(3-fluoro-4-sulfamoylbenzyl)-1H-pyrazol-1-yl)thiazole-4-carboxylic acid] returned an IC50 of less than 100 nM.
On to `NS(=O)(=O)c1ccc(Cc2c(-c3ccc(F)c(-c4nc5ccccc5[nH]4)c3)nn(-c3nc(C(=O)O)cs3)c2CC2CC2)cc1F` [Compound 160, 2-(3-(3-(1H-benzo[d]imidazol-2-yl)-4-fluorophenyl)-5-(cyclopropylmethyl)-4-(3-fluoro-4-sulfamoylbenzyl)-1H-pyrazol-1-yl)thiazole-4-carboxylic acid], for which the IC50 is less than 100 nM.
The figure for `NS(=O)(=O)c1ccc(Cc2c(-c3cccc(-c4ccc(C5CC5)cc4)c3)nn(-c3nc(C(=O)O)cs3)c2CC2CC2)cc1F` [Compound 183, 2-(3-(4′-cyclopropyl-[1,1′-biphenyl]-3-yl)-5-(cyclopropylmethyl)-4-(3-fluoro-4-sulfamoylbenzyl)-1H-pyrazol-1-yl)thiazole-4-carboxylic acid] is less than 100 nM.
The compound `CC(C)(C)NC(=O)c1cccc(-c2nn(-c3nc(C(=O)O)cs3)c(CC3CC3)c2Cc2ccc([S+](N)(=O)[O-])cc2)c1` [Compound 188, 2-(3-(3-(tert-butylcarbamoyl)phenyl)-5-(cyclopropylmethyl)-4-(4-sulfamoylbenzyl)-1H-pyrazol-1-yl)thiazole-4-carboxylic acid] came in with an IC50 of less than 100 nM.
For the compound `NS(=O)(=O)c1ccc(Cc2c(-c3cccc(-c4nc5ccccc5[nH]4)c3)nn(-c3nc(C(=O)O)cs3)c2CC2CC2)cc1F` [Compound 189, 2-(3-(3-(1H-benzo[d]imidazol-2-yl)phenyl)-5-(cyclopropylmethyl)-4-(3-fluoro-4-sulfamoylbenzyl)-1H-pyrazol-1-yl)thiazole-4-carboxylic acid], the IC50 is less than 100 nM.
For `COc1ccc(-c2cc(-c3nn(-c4nc(C(=O)O)cs4)c(CC4CC4)c3Cc3ccc(S(N)(=O)=O)c(F)c3)ccc2F)cc1Cl` [Compound 191, 2-(3-(3′-chloro-6-fluoro-4′-methoxy-[1,1′-biphenyl]-3-yl)-5-(cyclopropylmethyl)-4-(3-fluoro-4-sulfamoylbenzyl)-1H-pyrazol-1-yl)thiazole-4-carboxylic acid], the IC50 is less than 100 nM.
`CN(C)c1cccc(-c2cc(-c3nn(-c4nc(C(=O)O)cs4)c(CC4CC4)c3Cc3ccc(S(N)(=O)=O)c(F)c3)ccc2F)c1` [Compound 194, 2-(5-(cyclopropylmethyl)-3-(3′-(dimethylamino)-6-fluoro-[1,1′-biphenyl]-3-yl)-4-(3-fluoro-4-sulfamoylbenzyl)-1H-pyrazol-1-yl)thiazole-4-carboxylic acid] yielded an IC50 of less than 100 nM.
The figure for `Cc1cc(-c2cc(-c3nn(-c4nc(C(=O)O)cs4)c(CC4CC4)c3Cc3ccc(S(N)(=O)=O)c(F)c3)ccc2F)ccc1F` [Compound 195, 2-(5-(cyclopropylmethyl)-3-(4′,6-difluoro-3′-methyl-[1,1′-biphenyl]-3-yl)-4-(3-fluoro-4-sulfamoylbenzyl)-1H-pyrazol-1-yl)thiazole-4-carboxylic acid] is less than 100 nM; for `NS(=O)(=O)c1ccc(Cc2c(-c3ccc(F)c(C4=CCCO4)c3)nn(-c3nc(C(=O)O)cs3)c2CC2CC2)cc1F` [Compound 197, 2-(5-(cyclopropylmethyl)-3-(3-(4,5-dihydrofuran-2-yl)-4-fluorophenyl)-4-(3-fluoro-4-sulfamoylbenzyl)-1H-pyrazol-1-yl)thiazole-4-carboxylic acid] it is less than 100 nM; for `Cc1ccc(-c2cccc(-c3nn(-c4nc(C(=O)O)cs4)c(CC4CC4)c3Cc3ccc(S(N)(=O)=O)c(F)c3)c2)cc1` [Compound 198, 2-(5-(cyclopropylmethyl)-4-(3-fluoro-4-sulfamoylbenzyl)-3-(4′-methyl-[1,1′-biphenyl]-3-yl)-1H-pyrazol-1-yl)thiazole-4-carboxylic acid] it is less than 100 nM.
Next, `N#Cc1cccc(-c2cc(-c3nn(-c4nc(C(=O)O)cs4)c(CC4CC4)c3Cc3ccc(S(N)(=O)=O)c(F)c3)ccc2F)c1` [Compound 200, 2-(3-(3′-cyano-6-fluoro-[1,1′-biphenyl]-3-yl)-5-(cyclopropylmethyl)-4-(3-fluoro-4-sulfamoylbenzyl)-1H-pyrazol-1-yl)thiazole-4-carboxylic acid]: less than 100 nM.
Next, `N#Cc1ccc(-c2cc(-c3nn(-c4nc(C(=O)O)cs4)c(CC4CC4)c3Cc3ccc(S(N)(=O)=O)c(F)c3)ccc2F)cc1` [Compound 201, 2-(3-(4′-cyano-6-fluoro-[1,1′-biphenyl]-3-yl)-5-(cyclopropylmethyl)-4-(3-fluoro-4-sulfamoylbenzyl)-1H-pyrazol-1-yl)thiazole-4-carboxylic acid]: less than 100 nM.
As for `NS(=O)(=O)c1ccc(Cc2c(-c3ccc(F)c(N4CCCC4=O)c3)nn(-c3nc(C(=O)O)cs3)c2CC2CC2)cc1F` [Compound 202, 2-(5-(cyclopropylmethyl)-3-(4-fluoro-3-(2-oxopyrrolidin-1-yl)phenyl)-4-(3-fluoro-4-sulfamoylbenzyl)-1H-pyrazol-1-yl)thiazole-4-carboxylic acid], the IC50 is less than 100 nM.
With `Cc1ccc(-c2cccc(-c3nn(-c4nc(C(=O)O)cs4)c(CC4CC4)c3Cc3ccc(S(N)(=O)=O)c(F)c3)c2)nc1` [Compound 203, 2-(5-(cyclopropylmethyl)-4-(3-fluoro-4-sulfamoylbenzyl)-3-(3-(5-methylpyridin-2-yl)phenyl)-1H-pyrazol-1-yl)thiazole-4-carboxylic acid], the IC50 was less than 100 nM.
`Cc1ccc(-c2cccc(-c3nn(-c4nc(C(=O)O)cs4)c(CC4CC4)c3Cc3ccc(S(N)(=O)=O)c(F)c3)c2)cn1` [Compound 204, 2-(5-(cyclopropylmethyl)-4-(3-fluoro-4-sulfamoylbenzyl)-3-(3-(6-methylpyridin-3-yl)phenyl)-1H-pyrazol-1-yl)thiazole-4-carboxylic acid] gave an IC50 of less than 100 nM.
The compound `CC(C)c1ccc(-c2cncc(-c3nn(-c4nc(C(=O)O)cs4)c(CC4CC4)c3Cc3ccc(S(N)(=O)=O)c(F)c3)c2)cc1` [Compound 210, 2-[5-(cyclopropylmethyl)-4-[(3-fluoro-4-sulfamoylphenyl)methyl]-3-[5-(4-isopropylphenyl)pyridin-3-yl]pyrazol-1-yl]-1,3-thiazole-4-carboxylic acid] yielded an IC50 of less than 100 nM.
`Cc1cc(-c2cc(-c3nn(-c4nc(C(=O)O)cs4)c(CC4CC4)c3Cc3ccc(S(N)(=O)=O)c(F)c3)ccc2F)ccc1C(C)C` [Compound 213, 2-[5-(cyclopropylmethyl)-3-[4-fluoro-3-(4-isopropyl-3-methylphenyl)phenyl]-4-[(3-fluoro-4-sulfamoylphenyl)methyl]pyrazol-1-yl]-1,3-thiazole-4-carboxylic acid] displayed an IC50 of less than 100 nM.
In turn, `Cc1ncc(-c2cccc(-c3nn(-c4nc(C(=O)O)cs4)c(CC4CC4)c3Cc3ccc(S(N)(=O)=O)c(F)c3)c2)cn1` [Compound 214, 2-[5-(cyclopropylmethyl)-4-[(3-fluoro-4-sulfamoylphenyl)methyl]-3-[3-(2-methylpyrimidin-5-yl)phenyl]pyrazol-1-yl]-1,3-thiazole-4-carboxylic acid] yielded an IC50 of less than 100 nM.
